Assays:
Type in all cases: cell-based
H2122 NSCLC cells = experiment: Caspase 3/7 activation, H2122; parameters: key: −: lack of caspase 3/7 activation after 24 hours of compound treatment; ++: moderate; +++: strong; ++++: very strong; conditions: H2122, KRAS^G12c; BRG1 WT, LKB1 MUT, CDKN2A MUT; 24 hours
Description: (§2) Inhibition of cell growth and induction of apoptosis were determined by CellTiter-Glo® and caspase 3/7 activation assays after 72 and 24 hours of treatment, respectively.

H1573 NSCLC cells = experiment: Caspase 3/7 activation, H1573; parameters: key: −: lack of caspase 3/7 activation after 24 hours of compound treatment; ++: moderate; +++: strong; ++++: very strong; conditions: H1573, KRAS^G12A; BRG1 MUT, LKB1 WT, CDKN2A WT; 24 hours
Description: (§3) A panel of 24 non-small cell lung carcinoma (NSCLC) cell lines harboring RAS mutations was analyzed for genomic alterations, gene expression profiling and protein phosphorylation in MAPK and PI3K pathways. Inhibition of cell growth and induction of apoptosis were determined by CellTiter-Glo® and caspase 3/7 activation assays after 72 and 24 hours of treatment, respectively.

HOP62 NSCLC cells = experiment: Caspase 3/7 activation, HOP62; parameters: key: −: lack of caspase 3/7 activation after 24 hours of compound treatment; ++: moderate; +++: strong; ++++: very strong; conditions: HOP62, KRAS^G12c; BRG1 WT, LKB1 WT, CDKN2A MUT; 24 hours
Description: as §3

H1155 NSCLC cells = experiment: Caspase 3/7 activation, H1155; parameters: key: −: lack of caspase 3/7 activation after 24 hours of compound treatment; ++: moderate; +++: strong; ++++: very strong; conditions: H1155, KRAS^Q61H; BRG1 WT, LKB1 WT, CDKN2A WT; 24 hours
Description: as §3

SW1573 NSCLC cells = experiment: Caspase 3/7 activation, SW1573; parameters: key: −: lack of caspase 3/7 activation after 24 hours of compound treatment; ++: moderate; +++: strong; ++++: very strong; conditions: SW1573, KRAS^G12C; BRG1 WT, LKB1 WT, CDKN2A MUT; 24 hours
Description: as §3

H2009 NSCLC cells = experiment: Caspase 3/7 activation, H2009; parameters: key: −: lack of caspase 3/7 activation after 24 hours of compound treatment; ++: moderate; +++: strong; ++++: very strong; conditions: H2009, KRAS^G12A; BRG1 WT, LKB1 WT, CDKN2A WT; 24 hours
Description: as §2

[1] = test system: cell lines carrying activating mutations of B-Raf; experiment: Cell proliferation assays, B-Raf mutant cell lines; conditions: in vitro
Excerpt: (§1) MEK proteins are a node in a certain extracellular signal-related kinase ERK pathway which is commonly hyper-activated In tumor cells. Oncogenic mutations in both B-raf and Ras signal through MEK1 and MEK2. In vitro, 80% of cell lines carrying activating mutations of B-Raf and 72% of Ras mutant cell lines were sensitive to N-{3-[3-cyclopropyl-5-(2-fluoro-4-iodo-phenylamino)-6,8-dimethyl-2,4,7-trioxo-3,4,6,7-tetrahydro-2H-pyrido[4,3-d]pyrimidin-1-yl]phenyl}acetamide, or a pharmaceutically acceptable salt in cell proliferation assays, and a majority (83% of hematopoietic cancers from acute or chronic myeloid leukemia (AML or CML, respectively) origins were also very sensitive.

Ras mutant cell lines = experiment: Cell proliferation assays, Ras mutant cell lines; conditions: in vitro
Excerpt: as §1

[2] = test system: hematopoietic cancers from acute or chronic myeloid leukemia (AML or CML) origins; experiment: Cell proliferation assays, AML/CML lines; conditions: in vitro
Excerpt: as §1

[3] = test system: RAS-mutant NSCLC cell lines; experiment: Induction of apoptosis (caspase 3/7 activation) in panel of RAS-mutant NSCLC cell lines; conditions: Ras mut NSCLC cell lines, caspase 3/7 activation, 24 hours of treatment, trihydrate
Description: as §3

CC(=O)Nc1cccc(-n2c(=O)n(C3CC3)c(=O)c3c(Nc4ccc(I)cc4F)n(C)c(=O)c(C)c32)c1 [Compound A, N-{3-[3-cyclopropyl-5-(2-fluoro-4-iodo-phenylamino)-6,8-dimethyl-2,4,7-trioxo-3,4,6,7-tetrahydro-2H-pyrido[4,3-d]pyrimidin-1-yl]phenyl}acetamide]
Apoptosis Response (caspase 3/7 activation) (H2122 NSCLC cells): ++ | Apoptosis Response (caspase 3/7 activation) (H1573 NSCLC cells): − | Apoptosis Response (caspase 3/7 activation) (HOP62 NSCLC cells): − | Apoptosis Response (caspase 3/7 activation) (H1155 NSCLC cells): − | Apoptosis Response (caspase 3/7 activation) (SW1573 NSCLC cells): − | Apoptosis Response (caspase 3/7 activation) (H2009 NSCLC cells): − | Share of cell lines sensitive in cell proliferation assays [1]: 80% | Share of cell lines sensitive in cell proliferation assays (Ras mutant cell lines): 72% | Share of hematopoietic cancers very sensitive in cell proliferation assays [2]: 83%

CC(=O)O[C@@]12CO[C@@H]1C[C@H](O)[C@@]1(C)C(=O)[C@H](O)C3=C(C)[C@@H](OC(=O)[C@H](O)[C@@H](NC(=O)OC(C)(C)C)c4ccccc4)C[C@@](O)([C@@H](OC(=O)c4ccccc4)[C@H]21)C3(C)C [Docataxel, (2R,3S)—N-carboxy-3-phenylisoserine,N-tert-butyl ester, 13-ester with 5β-20-epoxy-1,2α,4,7β,10β,13α-hexahydroxytax-11-en-9-one 4-acetate 2-benzoate, trihydrate]
Response Rate (sensitivity/total lines tested), Cell Apoptosis (capsase 3/7) ([3]; listed as docetaxel): 42% | Response Rate (sensitivity/total lines tested), Cell Apoptosis (capsase 3/7) [3]: 42% (10/24) | Apoptosis Response (caspase 3/7 activation) (H2122 NSCLC cells): − | Apoptosis Response (caspase 3/7 activation) (H1573 NSCLC cells): ++ | Apoptosis Response (caspase 3/7 activation) (HOP62 NSCLC cells): ++ | Apoptosis Response (caspase 3/7 activation) (H1155 NSCLC cells): − | Apoptosis Response (caspase 3/7 activation) (SW1573 NSCLC cells): − | Apoptosis Response (caspase 3/7 activation) (H2009 NSCLC cells): −

— patent US20130231346A1, “METHODS OF TREATING CANCER” (GLAXOSMITHKLINE INTELLECTUAL PROPERTY (NO.2) LIMITED, priority 2010, published 2013)
